Assay results published in patent publication US8501992B2, “Hydroxyphenyl sulfonamides as antiapoptotic bcl inhibitors” (Bristol-Myers Squibb Company, priority 2008, dated 2013).

What was measured:
Format in all cases: binding
Bcl-b = target: T1, Bcl-b (Homo sapiens, UniProt Q9HD36); test: Bclb/Bim fluorescence polarization assay (FPA); conditions: BIM BH3 peptide 5 nM, Bcl-b 40 nM, Ki calculated from FPA data
T1 construct: without their C-terminal transmembrane domain; GST; made in house
T1 sequence (Q9HD36 1-182 limits assumed): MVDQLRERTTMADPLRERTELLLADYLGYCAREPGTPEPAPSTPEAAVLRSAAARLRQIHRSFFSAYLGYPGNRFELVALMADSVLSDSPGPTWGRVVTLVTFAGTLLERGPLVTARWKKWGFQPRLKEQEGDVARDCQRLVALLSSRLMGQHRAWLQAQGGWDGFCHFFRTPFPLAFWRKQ
Description: (§1) Compounds were profiled for their ability to disrupt in vitro binding interactions in fluorescence polarization assays (FPAs) using synthetic fluorochrome-labeled Bcl homology 3 (BH3) peptides derived from BIM [(FAM)-Ahx-[…]-NH2 (SEQ ID NO: 1) (GenBank Accession No. O43521)] or BAK [Ac-GQVGRQLAIIGE-LYS(FAM)-INR-NH2 (SEQ ID NO:2) (GenBank Accession No. Q16611) amino acid sequences and four bacterial recombinant proteins [Bcl-b (GenBank Accession No. Q9HD36), Bcl-2 (GenBank Accession No. P10415), Bcl-Xl (GenBank Accession No. Q07817), Mcl-1 (GenBank Accession No. Q07820)] without their C-terminal transmembrane domain. Proteins were purified from bacterial lysates using their glutathione S-transferase (GST)-tag (Bcl-b, Bcl-2, Mcl-1) or His6-tag (Bcl-Xl) and following one-step affinity chromatography procedures. Dissociation constants (Kd) for peptide binding protein were determined by fluorescence polarization in FPAs measuring BIM BH3 peptide binding Bcl-b, Mcl-1 or Bcl-2 protein or BAK BH3 peptide binding Bcl-Xl protein. The Kd values were generated by fitting the experimental data using a sigmoidal dose-response nonlinear regression model.
(§2) Compound inhibitory concentration values, IC50 (50% reduction in fluorescence polarization), were determined using fluorochrome-labeled BH3 peptides and recombinant Bcl proteins in fluorescence polarization assays (FPAs). Compounds diluted in DMSO (0.5 ul) were transferred (in duplicate) to individual wells of a 384-well plate. The fluorochrome-labeled peptide was added followed by recombinant protein addition. Each binding FPA reaction (50 ul) contained BIM BH3 peptide (5 nM) or BAK BH3 peptide (1.5 nM) and Bcl-b (40 nM), Mcl-1 (28 nM), Bcl-2 (11 nM) or Bcl-Xl. (5 nM) protein suspended in assay buffer [20 mM sodium phosphate, pH 7.4, 1 mM EDTA, 50 mM NaCl., 0.05% Pluronic F68]. Reaction mixtures were incubated at ambient temperature for 60 minutes prior to measuring polarization (mP) using an Analyst (LJL, Molecular Devices, Sunnyvale, Calif.) programmed to detect an emission wavelength of 530 nm after excitation (excitation wavelength=485 nm).
(§3) Competitive compound inhibition constants (Ki) were calculated using FPA experimental data and a mathematical equation, Ki=[I]50/([L]50/Kd+[P]0/Kd+1), where [I]50 denotes free inhibitor concentration at 50% inhibition, [L]50 is free labeled ligand concentration at 50% inhibition, [P]0 is free protein concentration at 0% inhibition, and Kd is the dissociation constant of the protein-ligand complex.

Mcl-1 = target: T2, Mcl-1 (Homo sapiens, UniProt Q07820); test: Mcl-1/Bim fluorescence polarization assay (FPA); conditions: BIM BH3 peptide 5 nM, Mcl-1 28 nM, Ki calculated from FPA data
T2 construct: without their C-terminal transmembrane domain; GST; made in house
T2 sequence (Q07820 1-327 limits assumed): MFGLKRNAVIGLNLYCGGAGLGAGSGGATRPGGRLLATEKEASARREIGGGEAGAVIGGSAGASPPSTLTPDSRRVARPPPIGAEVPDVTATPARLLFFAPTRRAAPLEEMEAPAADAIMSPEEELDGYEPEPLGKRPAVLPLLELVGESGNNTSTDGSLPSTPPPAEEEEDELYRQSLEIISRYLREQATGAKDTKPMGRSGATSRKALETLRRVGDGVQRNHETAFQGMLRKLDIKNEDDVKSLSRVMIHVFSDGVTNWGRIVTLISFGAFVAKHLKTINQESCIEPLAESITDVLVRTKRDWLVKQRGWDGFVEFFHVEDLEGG
Description: as §1, §2, §3

Bcl-2 = target: T3, Bcl-2 (Homo sapiens, UniProt P10415); test: Bcl2/Bim fluorescence polarization assay (FPA); conditions: BIM BH3 peptide 5 nM, Bcl-2 11 nM, Ki calculated from FPA data
T3 construct: without their C-terminal transmembrane domain; GST; made in house
T3 sequence (P10415 1-211 limits assumed): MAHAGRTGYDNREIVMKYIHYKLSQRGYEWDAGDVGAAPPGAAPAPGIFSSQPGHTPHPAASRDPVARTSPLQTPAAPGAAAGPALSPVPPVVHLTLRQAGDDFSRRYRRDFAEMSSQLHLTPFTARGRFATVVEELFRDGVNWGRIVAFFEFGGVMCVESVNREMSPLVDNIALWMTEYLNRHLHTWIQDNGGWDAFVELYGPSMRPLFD
Description: as §1, §2, §3

Row | SMILES | Ki (Bcl-b) | Ki (Mcl-1) | Ki (Bcl-2)
1 | O=S(=O)(c1cc(Cl)cc(Cl)c1O)N(Cc1ccc(F)cc1)Cc1ccc(CN(Cc2ccc(F)cc2)S(=O)(=O)c2cc(Cl)cc(Cl)c2O)cc1 [Example 96, N-(4-Fluoro-benzyl)-N-(4-{[(4-fluoro-benzyl)-(3,5-dichloro-2-hydroxybenzene)sulfonyl-amino]-methyl}-benzyl)-3,5-dichloro-2-hydroxybenzenesulfonamide] | 60 nM | 10 nM | 110 nM
2 | CC(C)CN(Cc1cccc(CN(Cc2ccc(-c3ccc(F)cc3)cc2)S(=O)(=O)c2cc(Cl)cc(Cl)c2O)c1)C(=O)c1ccc2[nH]c(=O)c(=O)[nH]c2c1 [Example 190, N-(3-((3,5-Dichloro-N-((4′-fluorobiphenyl-4-yl)methyl)-2-hydroxyphenylsulfonamido)methyl)-benzyl)-N-isobutyl-2,3-dioxo-1,2,3,4-tetrahydroquinoxaline-6-carboxamide] | 150 nM | 550 nM | 180 nM
3 | O=C(c1ccc(N(Cc2ccc(F)cc2)S(=O)(=O)c2cc(Cl)cc(Cl)c2O)cc1)N(Cc1ccc(F)cc1)Cc1cc(Cl)cc(Cl)c1 [Example 175, 4-(3,5-Dichloro-N-(4-fluorobenzyl)-2-hydroxyphenylsulfonamido)-N-(3,5-dichlorobenzyl)-N-(4-fluorobenzyl)benzamide] | 60 nM | 30 nM | 40 nM
4 | CC(C)CN(Cc1cc(Cl)cc(CN(CC(C)C)S(=O)(=O)c2cc(Cl)cc(Cl)c2O)c1)C(=O)c1cccc(SC(F)(F)F)c1 [Example 72, N-(3-chloro-5-((3,5-dichloro-2-hydroxy-N-isobutylphenylsulfonamido)methyl)benzyl)-N-isobutyl-3-(trifluoromethylthio)benzamide] | 182 nM | 1150 nM | 349 nM
5 | N#Cc1ccc(S(=O)(=O)NCc2cccc(CN(Cc3ccc(-c4ccccc4)cc3)S(=O)(=O)c3cc(Cl)cc(Cl)c3O)c2)cc1 [Example 4, N-(Biphenyl-4-ylmethyl)-3,5-dichloro-N-(3-((4-cyanophenylsulfonamido)methyl)benzyl)-2-hydroxybenzenesulfonamide] | 280 nM | 60 nM | 60 nM
6 | O=C(c1ccc(CN(Cc2ccc(F)cc2)S(=O)(=O)c2cc(Cl)cc(Cl)c2O)cc1)N(Cc1ccc(F)cc1)Cc1cc(Cl)cc(Cl)c1 [Example 106, 4-((3,5-Dichloro-N-(4-fluorobenzyl)-2-hydroxyphenylsulfonamido)methyl)-N-(3,5-dichlorobenzyl)-N-(4-fluorobenzyl)benzamide] | 40 nM | 40 nM | 40 nM
7 | O=C(c1ccc(CN(Cc2ccc(F)cc2)S(=O)(=O)c2cc(Cl)cc(Cl)c2O)cc1)N1CCCCC1 [Example 130] | 440 nM | 2060 nM | 840 nM
8 | CC(C)CN(Cc1cccc(CN(Cc2ccc(-c3ccc(F)cc3)cc2)S(=O)(=O)c2cc(Cl)cc(Cl)c2O)c1)C(=O)c1nc2ccccc2s1 [Example 191, N-(3-((3,5-Dichloro-N-((4′-fluorobiphenyl-4-yl)methyl)-2-hydroxyphenylsulfonamido)methyl)-benzyl)-N-isobutylbenzo[d]thiazole-2-carboxamide] | 180 nM | 530 nM | 110 nM
9 | CCCCNC(=O)c1ccc(CN(Cc2ccc(F)cc2)S(=O)(=O)c2cc(Cl)cc(Cl)c2O)cc1 [Example 138, N-Butyl-4-((3,5-dichloro-N-(4-fluorobenzyl)-2-hydroxyphenylsulfonamido)methyl)-benzamide] | 450 nM | 1760 nM | 820 nM
10 | CN(CCc1ccccc1)C(=O)c1ccc(CN(Cc2ccc(F)cc2)S(=O)(=O)c2cc(Cl)cc(Cl)c2O)cc1 [Example 137, 4-((3,5-Dichloro-N-(4-fluorobenzyl)-2-hydroxyphenylsulfonamido)methyl)-N-methyl-N-phenethylbenzamide] | 220 nM | 480 nM | 250 nM
11 | O=C(c1ccc(CN(Cc2ccc(F)cc2)S(=O)(=O)c2cc(Cl)cc(Cl)c2O)cc1)N1CCN(c2cnccn2)CC1 [Example 140, 3,5-Dichloro-N-(4-fluorobenzyl)-2-hydroxy-N-(4-(4-(pyrazin-2-yl)piperazine-1-carbonyl)benzyl)benzenesulfonamide] | 500 nM | 1730 nM | 660 nM
12 | COc1c(CN(Cc2ccc(F)cc2)S(=O)(=O)c2cc(Cl)cc(Cl)c2O)cccc1-c1ccc(Cl)cc1 [Example 240, 3,5-Dichloro-N-((4′-chloro-2-methoxybiphenyl-3-yl)methyl)-N-(4-fluorobenzyl)-2-hydroxybenzenesulfonamide] | 110 nM | 470 nM | 120 nM
13 | O=S(=O)(c1cc(Cl)cc(Cl)c1)N(Cc1ccc(F)cc1)Cc1cccc(CN(Cc2ccc(F)cc2)S(=O)(=O)c2cc(Cl)cc(Cl)c2O)n1 [Example 91, 3,5-dichloro-N-((6-((3,5-dichloro-N-(4-fluorobenzyl)phenylsulfonamido)methyl)pyridin-2-yl)methyl)-N-(4-fluorobenzyl)-2-hydroxybenzenesulfonamide] | 33 nM | 52 nM | 42 nM
14 | CC(C)CN(Cc1ccc(CN(CC(C)C)S(=O)(=O)c2cc(Cl)cc(Cl)c2O)cc1)S(=O)(=O)c1cc(Cl)cc(Cl)c1O [Example 97, N-Isobutyl-N-{4-[(isobutyl-(3,5-dichloro-2-hydroxybenzene)sulfonyl-amino)-methyl]-benzyl}-(3,5-dichloro-2-hydroxybenzene)sulfonamide] | 70 nM | 100 nM | 110 nM
15 | O=S(=O)(c1cccc(CN(Cc2ccc(F)cc2)S(=O)(=O)c2cc(Cl)cc(Cl)c2O)c1)N(Cc1ccc(F)cc1)Cc1cc(Cl)cc(Cl)c1 [Example 94, 3,5-Dichloro-N-(3-(N-(3,5-dichlorobenzyl)-N-(4-fluorobenzyl)sulfamoyl)benzyl)-N-(4-fluorobenzyl)-2-hydroxybenzenesulfonamide] | 40 nM | 60 nM | 60 nM
16 | CS(=O)(=O)c1ccc(CN(Cc2cccc(CNS(=O)(=O)c3cc(Cl)cc(Cl)c3O)c2)S(=O)(=O)c2cc(Cl)cc(Cl)c2O)cc1 [Example 56, 3,5-dichloro-N-(3-((3,5-dichloro-2-hydroxyphenyl-sulfonamido)methyl)benzyl)-2-hydroxy-N-(4-(methylsulfonyl)benzyl) benzenesulfonamide] | 103 nM | 187 nM | 148 nM
17 | CC(C)CCNC(=O)c1ccc(CN(Cc2ccc(F)cc2)S(=O)(=O)c2cc(Cl)cc(Cl)c2O)cc1 [Example 135, 4-((3,5-Dichloro-N-(4-fluorobenzyl)-2-hydroxyphenylsulfonamido)methyl)-N-isopentylbenzamide] | 280 nM | 490 nM | 610 nM
18 | NS(=O)(=O)c1ccc(CNC(=O)c2ccc(CN(Cc3ccc(F)cc3)S(=O)(=O)c3cc(Cl)cc(Cl)c3O)cc2)cc1 [Example 147, 4-((3,5-Dichloro-N-(4-fluorobenzyl)-2-hydroxyphenylsulfonamido)methyl)-N-(4-sulfamoylbenzyl)benzamide] | 450 nM | 1730 nM | 960 nM
19 | O=C(NCCCO)c1cc(Cl)c(O)c(S(=O)(=O)N(Cc2ccc(F)cc2)Cc2cccc(-c3ccc(Cl)cc3)c2)c1 [Example 213, 3-Chloro-5-(N-((4′-chlorobiphenyl-3-yl)methyl)-N-(4-fluorobenzyl)-sulfamoyl)-4-hydroxy-N-(3-hydroxypropyl)benzamide] | 470 nM | 2700 nM | 1220 nM
